Measured values: the METLIN SMRT retention time set (Domingo-Almenara et al. 2019)

Assay: gradient 5% acetonitrile 3 min, to 50% in 2 min, to 85% in 15 min, held 3 min, 100 µL/min
Settings: column: Zorbax Extend-C18 2.1 x 50 mm; eluents: water / acetonitrile, 0.1% formic acid
How it was run: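 Values are retention times taken from adduct peaks that software picked and an analyst inspected. The pure standards were run as mixtures of ~100 molecules on HPLC linked to a quadrupole time-of-flight mass spectrometer, in positive and negative ionization mode. A Zorbax Extend-C18 column (2.1 × 50 mm, 1.8 μm) was used at 100 μL/min with water and acetonitrile, each including 0.1% formic acid.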

For CC(=O)N1CCc2cc(N3CC(C(=O)Nc4ccccc4C)CC3=O)ccc21 (stereo not given), which RP-LC retention time is on record?
The RP-LC retention time was 692 s.

With CC(C)n1c(CCNC(=O)c2ccc(F)cc2)nc2cccnc21 as the compound, how does the RP-LC retention time read?
The RP-LC retention time was 656 s.

Which RP-LC retention time does the source give for CN(C)c1cc(OC2CCN(C(=O)c3cnn4cccnc34)C2)ncn1 (stereo not given) here?
The RP-LC retention time was 578 s.

Which RP-LC retention time does the source give for CCC(=O)N(C1CCOCC1)C1CCN(S(=O)(=O)c2ccc(C)c(C)c2)CC1 here?
The RP-LC retention time was 869 s.

With O=C(Nc1cccc(F)c1)[C@@H]1OCC(=O)N(C2CC2)[C@H]1c1ccccc1 as the compound, how does the RP-LC retention time read?
The RP-LC retention time was 849 s.

For Cc1nnsc1C(=O)NCc1c(F)cccc1Cl, which RP-LC retention time is on record?
Its RP-LC retention time is 861 s.

For Cc1cnn(Cc2nc(-c3ccc(NC(=O)C4CCCCC4)cc3)oc2C)c1, which RP-LC retention time is on record?
The RP-LC retention time was 881 s.

Which RP-LC retention time does the source give for CN1C(=O)c2cccnc2Sc2cc(C(=O)NCc3ccccc3)ccc21 here?
Its RP-LC retention time is 746 s.

Which RP-LC retention time does the source give for Cc1nc2cc(-c3noc(Cc4cccc5ccccc45)n3)ccc2o1 here?
The RP-LC retention time was 1130 s.

For O=C(c1ccc(F)cc1)N1CCCC(c2nnc(-c3ccccc3)o2)C1 (stereo not given), which RP-LC retention time is on record?
The RP-LC retention time was 819 s.

With O=C(Cc1nnc2c(-c3nc(C4CC4)no3)cccn12)N1CCSCC1 as the compound, how does the RP-LC retention time read?
The RP-LC retention time was 653 s.

For CO[C@H]1C(=O)N(C(C)C)[C@H]1C1CCN(C(=O)C(C)C)CC1, which RP-LC retention time is on record?
The RP-LC retention time was 682 s.

With COc1cccc(-c2nnc(Cc3nc(-c4cccc(Cl)c4)no3)o2)c1 as the compound, how does the RP-LC retention time read?
The RP-LC retention time was 1090 s.

For COc1ccccc1-c1cc2c(=O)n(Cc3nc(-c4cccc(F)c4)no3)ccn2n1, which RP-LC retention time is on record?
The RP-LC retention time was 1040 s.

For Cc1ccccc1OCc1ccc(-c2nc(C#N)c(NCCCN(C)C)o2)o1, which RP-LC retention time is on record?
The RP-LC retention time was 727 s.

Which RP-LC retention time does the source give for CCc1nc2c(NC(=O)c3cccc(Br)c3)cccn2n1 here?
Its RP-LC retention time is 951 s.

Which RP-LC retention time does the source give for CCCc1nc2cccnc2n1C1CCN(C(=O)COc2ccccc2)C1 (stereo not given) here?
The RP-LC retention time was 630 s.

Which RP-LC retention time does the source give for COC(=O)c1cc(OCC(=O)NC2CCCC2)c2cc(OC)ccc2n1 here?
Its RP-LC retention time is 739 s.

With N#Cc1ccccc1NC(=O)c1ccc(N2C(=O)CCC2=O)cc1 as the compound, how does the RP-LC retention time read?
Its RP-LC retention time is 639 s.

Which RP-LC retention time does the source give for CCCOC(=O)c1cnc2nc(C)ccc2c1NCc1ccc(OC)c(OC)c1 here?
The RP-LC retention time was 701 s.

With COc1ccc(N2CCN(c3nc(C(=O)NCCN4CCCCC4)cs3)CC2)cc1 as the compound, how does the RP-LC retention time read?
Its RP-LC retention time is 642 s.

For O=C(C1CC1)N1CCC(N(Cc2cccnc2)C2CCOCC2)CC1, which RP-LC retention time is on record?
The RP-LC retention time was 550 s.

With NS(=O)(=O)c1ccc(CCNC(=O)c2n[nH]c3ccccc23)cc1 as the compound, how does the RP-LC retention time read?
The RP-LC retention time was 612 s.

Which RP-LC retention time does the source give for Cc1cc(C)cc(NC(=O)N2CCN(c3ccc(=O)n(-c4ccccc4)n3)CC2)c1 here?
Its RP-LC retention time is 832 s.

For Oc1c(C(Nc2nccs2)c2ccc(F)cc2)ccc2cccnc12 (stereo not given), which RP-LC retention time is on record?
Its RP-LC retention time is 654 s.

Which RP-LC retention time does the source give for O=C(NC[C@H](O)CO)c1ccncc1Nc1ccc(I)cc1F here?
The RP-LC retention time was 671 s.

For CCOc1ccc(CNC(=O)COc2nc(C)nc3oc(C)c(C)c23)cc1, which RP-LC retention time is on record?
Its RP-LC retention time is 892 s.

With Cc1nc(-c2noc(-c3ccncc3)n2)cn1CC(=O)NCc1ccc(F)cc1 as the compound, how does the RP-LC retention time read?
Its RP-LC retention time is 885 s.

With CCC(C)NC(=O)CSc1ccc(-n2nccc2-c2ccc(OC)cc2)nn1 (stereo not given) as the compound, how does the RP-LC retention time read?
Its RP-LC retention time is 989 s.

With Cc1nc(-c2ccncc2)nc2c1CCC(=O)N2Cc1cccs1 as the compound, how does the RP-LC retention time read?
The RP-LC retention time was 723 s.
